Results from EP0425235B1, “Cytotoxic agents comprising maytansinoids and their therapeutic use” (IMMUNOGEN INC, priority 1989, dated 1991).
Like-named read-outs stand apart in the source and are kept apart here.

Legend:
[1] = tested on: Ovcar3 (Ovarian carcinoma); experiment: In vitro cytotoxicity, clonogenic assay; details: for IC50: Homo sapiens, OVCAR-3, 24 h, read-out: IC50(24hr.exposure)
Description: (§1) Cells of the human promyelocytic leukemia cell line, HL-60 (ATCC CCL 240) and the Burkitt's lymphoma cell line Namalwa (ATCC CRL 1432) were grown as suspension cultures in RPMI-1640 medium supplemented with 10% fetal calf serum and 2 mM L-glutamine. All other cell lines described below were grown as adherent cultures. Human epidermoid carcinoma cell line, KB (ATCC CCL 17), human renal carcinoma cell line A498 (ATCC HTB 44), human colon adenocarcinoma cell lines SW620 (ATCC CCL 227) and HT-29 (ATCC HTB 38) were grown in RPMI-1640 medium supplemented with 10% fetal calf serum and 2 mM L-glutamine. Human breast carcinoma SKBR3 cells (ATCC HTB 30) were grown in DMEM supplemented with 15% fetal calf serum containing 2 mM glutamine and the human ovarian adenocarcinoma cell line OVCAR3 (ATCC HTB 161) was grown in RPMI-1640 medium supplemented with 10% fetal calf serum containing 10 µg/ml insulin and 2 mM L-glutamine.
(§2) Cytotoxicity assays were performed in the respective media described above. The cytotoxicity of the maytansinoids and their antibody conjugates to HL-60 and Namalwa cells was measured by back-extrapolation of cell proliferation curves. Cytotoxicity of these compounds to the rest of the cell lines was determined using a clonogenic assay as previously described.

[2] = tested on: P388, L1210, and LY5178 murine leukemic cell suspensions; details: P388, L1210 and LY5178, P388 most sensitive; cited from earlier work
[3] = tested on: SKBR3 (human breast tumor); experiment: In vitro cytotoxicity, clonogenic assay (plating efficiency); type: cell-based
Excerpt: (§3) Cytotoxicity of the maytansinoids and their antibody conjugates to non-adherent cell lines such as Namalwa and HL-60 can be measured by back-extrapolation of cell proliferation curves as described in Goldmacher et al, 135 J. Immunol. 3648-3651 (1985). Cytotoxicity of these compounds to adherent cell lines such as SKBR3 and KB can be determined by clonogenic assays as described in Goldmacher et al, 102 J. Cell Biol. 1312-1319 (1986).
The disulfide-containing maytansinoid drugs of the invention were evaluated for their ability to suppress proliferation of various human tumor cell lines in vitro. Two adherent cell lines KB (human epidermoid carcinoma) and SKBR3 (human breast tumor) and the non-adherent cell line, Namalwa (Burkitt's lymphoma) were used for the assessment of cytotoxicity of these compounds. […]
as §1, §2

[4] = tested on: KB (human epidermoid carcinoma); experiment: as above; type: cell-based; details: for fold more toxic than maytansine: KB and SKBR3 cells, ratio of IC50 values; for times less toxic than L counterpart: D-aminoacyl isomer vs L counterpart (6c, 6e), all three cell lines (KB, SKBR3, Namalwa)
Excerpt: as §3
(§4) The disulfide-containing maytansinoid drugs of the invention were evaluated for their ability to suppress proliferation of various human tumor cell lines in vitro. Two adherent cell lines KB (human epidermoid carcinoma) and SKBR3 (human breast tumor) and the non-adherent cell line, Namalwa (Burkitt's lymphoma) were used for the assessment of cytotoxicity of these compounds. Cells were exposed to the compounds for 24 hours and the surviving fractions of cells were measured in direct assays.
as §1, §2

[5] = tested on: P388 lymphocytic leukemia system; details: cited from earlier work
A498 (Renal carcinoma) = experiment: In vitro cytotoxicity, clonogenic assay; type: cell-based, human; details: for IC50: Homo sapiens, A498, 24hr exposure
Description: (§5) Since the methyldithio-maytansinoids are even more toxic than maytansine to solid tumor cell lines like KB and SKBR3, a wider panel of solid tumor cell lines was tested in a manner analogous to that described above to see whether this was a general phenomenon.
as §1, §2

[6] = tested on: Namalwa (Burkitt's lymphoma); experiment: In vitro cytotoxicity, growth back-extrapolation; type: cell-based, human
Excerpt: as §3, §4, §1, §2

[7] = tested on: human acute lymphoblastic leukemia line C.E.M.; details: cited from earlier work
L1210 cells = L1210 cells in vitro; cited from earlier work
[8] = tested on: SW620 (Colon adenocarcinoma); experiment: In vitro cytotoxicity, clonogenic assay; type: cell-based, human; details: for IC50: Homo sapiens, read-out: IC50(24hr.exposure)
Description: as §1, §2

[9] = tested on: HL60(Promyelocytic leukemia); experiment: In vitro cytotoxicity, back-extrapolation of cell proliferation curves; type: cell-based; details: Homo sapiens, HL-60; HL60, 24hr exposure
Description: as §5
as §1, with “Human breast carcinoma SKBR3 cells (ATCC HTB 30) were grown in DMEM supplemented with 15% fetal calf serum containing 2 mM glutamine and the human ovarian adenocarcinoma cell line OVCAR3 (ATCC HTB 161) was grown in RPMI-1640 medium supplemented with 10% fetal calf serum containing 10 µg/ml insulin and 2 mM L-glutamine.” left out
as §2

[10] = Homo sapiens, 24 h, NAMALWA, 24 hour exposure, read-out: IC50
[11] = Homo sapiens, 24 h, Namalwa, 24hr exposure (Table 2), read-out: IC50(24hr.exposure)
[12] = Homo sapiens, SK-BR-3, 24 h, SKBR3, 24 hour exposure
[13] = Homo sapiens, 24 h, KB, 24 hour exposure

In the case of `COc1cc2cc(c1Cl)N(C)C(=O)C[C@H](OC(=O)[C@H](C)N(C)C(C)=O)[C@]1(C)O[C@H]1[C@H](C)[C@@H]1C[C@@](O)(NC(=O)O1)[C@H](OC)/C=C/C=C(\C)C2` [Compound 1a, maytansine, reference compound], the IC50 [1] is given as 100 pM, the “inhibited at doses of” value [2] is given as 10^-3 to 10^-7 microgram/ml and the IC50 ([3]; Homo sapiens, SK-BR-3, 24 h, SKBR3, 24 hour exposure, read-out: IC50) is given as 100 pM. The IC50 ([3]; Homo sapiens, SK-BR-3, 24 h, SKBR3, 24hr exposure (Table 2), read-out: IC50(24hr.exposure)) was 110 pM, the IC50 ([4]; Homo sapiens, 24 h, KB, 24 hour exposure, read-out: IC50) was 30 pM and the IC50 ([4]; Homo sapiens, 24 h, KB, 24hr exposure (Table 2), read-out: IC50(24hr.exposure)) was 34 pM. For the same molecule, the “dosage range over which tumor growth was inhibited” value [5] was 50- to 100 fold, the surviving fraction (A498 (Renal carcinoma); A498, at 1x10^-10 M) was 100% and the IC50 (A498 (Renal carcinoma)) was > 100 pM. For the same molecule, the IC50 [6, 10] was 400 pM, the IC50 [6, 11] was 400 pM and the “inhibited by concentrations as low as” value [7] was 10^-7 microgram/ml. For the same molecule, the “cells accumulating in mitosis” value (L1210 cells) was 67%, the IC50 ([8]; SW-620, SW620, 24hr exposure) was > 100 pM and the surviving fraction ([8]; SW620, at 1x10^-10 M) was 100%. It also gave an IC50 [9] of 500 pM.

In the case of `COc1cc2cc(c1Cl)N(C)C(=O)C[C@H](OC(=O)[C@H](C)N(C)C(=O)CCSSC)[C@]1(C)O[C@H]1[C@H](C)[C@@H]1C[C@@](O)(NC(=O)O1)[C@H](OC)/C=C/C=C(\C)C2` [Compound 6b], the IC50 [1] is reported as 50 pM, the “cytotoxicity relative to maytansine” value ([1]; OVCAR3) is reported as “twice as cytotoxic” and the IC50 [3, 12] is reported as ≤ 10 pM. For the same molecule, the IC50 ([3]; SKBR3, 24 hour exposure) was 11 pM, the IC50 ([3]; SKBR3, 72hr exposure) was 1x10^-13 Molar and the IC50 [4, 13] was ≤ 10 pM. The IC50 ([4]; Homo sapiens, 24 h, read-out: IC50(24hr.exposure), KB, 24hr exposure (Table 2)) was 11 pM, the “fold more toxic than maytansine” value [4] was 3-10 fold and the IC50 (A498 (Renal carcinoma)) was 100 pM. For the same molecule, the IC50 [6, 11] was 6000 pM, the IC50 ([8]; SW-620, 24 h) was 40 pM and the IC50 [9] was 800 pM.

For `COc1cc2cc(c1Cl)N(C)C(=O)C[C@H](OC(=O)[C@H](C)N(C)C(=O)CCCSSC)[C@]1(C)O[C@H]1[C@H](C)[C@@H]1C[C@@](O)(NC(=O)O1)[C@H](OC)/C=C/C=C(\C)C2` [Compound 6c], the IC50 [4, 13] was ≤ 10 pM, the “fold more toxic than maytansine” value [4] was 3-10 fold and the IC50 ([4]; KB, 24 hour exposure) was 8.5 pM. The IC50 [6, 10] was ≥ 3000 pM and the IC50 ([6]; NAMALWA, 24 hour exposure, read-out: IC50) was 3200 pM.

In the case of `COc1cc2cc(c1Cl)N(C)C(=O)C[C@H](OC(=O)[C@@H](C)N(C)C(=O)CCCSSC)[C@]1(C)O[C@H]1[C@H](C)[C@@H]1C[C@@](O)(NC(=O)O1)[C@H](OC)/C=C/C=C(\C)C2` [Compound 6d], the “times less toxic than L counterpart” value [4] is reported as ≥ 20 times, the IC50 [4, 13] is reported as 190 pM and the IC50 [6, 10] is reported as 13000 pM.

Molecule `COc1cc2cc(c1Cl)N(C)C(=O)C[C@H](OC(=O)[C@H](C)N(C)C(=O)CCSSc1ccccc1)[C@]1(C)O[C@H]1[C@H](C)[C@@H]1C[C@@](O)(NC(=O)O1)[C@H](OC)/C=C/C=C(\C)C2` [Compound 6e] has an IC50 [4, 13] of 100 pM and an IC50 [6, 10] of 600 pM.

In the case of `COc1cc2cc(c1Cl)N(C)C(=O)C[C@H](OC(=O)[C@@H](C)N(C)C(=O)CCSSc1ccccc1)[C@]1(C)O[C@H]1[C@H](C)[C@@H]1C[C@@](O)(NC(=O)O1)[C@H](OC)/C=C/C=C(\C)C2` [Compound 6f], the “times less toxic than L counterpart” value [4] is reported as ≥ 20 times, the IC50 [4, 13] is reported as 2000 pM and the IC50 [6, 10] is reported as 8000 pM.

With `COc1cc2cc(c1Cl)N(C)C(=O)C[C@H](OC(=O)[C@H](C)N(C)C(=O)CCS)[C@]1(C)O[C@H]1[C@H](C)[C@@H]1C[C@@](O)(NC(=O)O1)[C@H](OC)/C=C/C=C(\C)C2` [Compound 7b] the IC50 [3, 12] was < 10 pM, the IC50 [4, 13] was 600 pM and the IC50 [6, 10] was 10000 pM.
